Experimental findings from ChEMBL document CHEMBL3817726, “Chemically Diverse Group I p21-Activated Kinase (PAK) Inhibitors Impart Acute Cardiovascular Toxicity with a Narrow Therapeutic Window” (J Med Chem, 2016) are described below.

Converted amounts (≈) assume the structure as drawn.

Data set [1] deals with Serine/threonine-protein kinase PAK 1 (Homo sapiens, UniProt Q13153). Briefly: Inhibition of human recombinant N-terminal 6-His-tagged PAK1 kinase domain (249 to 545 residues) expressed in Escherichia coli BL21(DE3) assessed as phosphorylation of coumarin labeled FRET peptide substrate at Ser/Thr19 preincubated for 10 mins followed by ATP addition measured after 60 mins by Z'-LYTE assay.
Serine/threonine-protein kinase PAK 1, sequence (Q13153 whole entry, the tested form may be a part): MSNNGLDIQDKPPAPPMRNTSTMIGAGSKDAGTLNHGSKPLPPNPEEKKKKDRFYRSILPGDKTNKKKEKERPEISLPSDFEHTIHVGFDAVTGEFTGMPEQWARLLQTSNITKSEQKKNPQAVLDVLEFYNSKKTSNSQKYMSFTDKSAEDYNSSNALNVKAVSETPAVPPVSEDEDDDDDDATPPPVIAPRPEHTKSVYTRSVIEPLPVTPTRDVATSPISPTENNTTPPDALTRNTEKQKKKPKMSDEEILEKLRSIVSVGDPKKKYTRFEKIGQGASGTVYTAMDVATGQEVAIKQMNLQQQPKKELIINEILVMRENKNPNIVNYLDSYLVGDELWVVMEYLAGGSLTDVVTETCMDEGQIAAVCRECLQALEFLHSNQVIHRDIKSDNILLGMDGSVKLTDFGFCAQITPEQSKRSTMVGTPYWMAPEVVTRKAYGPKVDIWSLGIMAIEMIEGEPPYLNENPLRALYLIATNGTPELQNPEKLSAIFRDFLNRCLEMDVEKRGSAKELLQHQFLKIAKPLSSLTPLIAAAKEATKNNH

For data set [2], the species on record is Homo sapiens. Description: Selectivity for human recombinant N-terminal 6-His-tagged PAK1 kinase domain (249 to 545 residues) over LCK (unknown origin).
In data set [3] the target is Serine/threonine-protein kinase PAK 1/PAK 2 (Homo sapiens, UniProt Q13177+Q13153). Description: Inhibition of PAK1/2 in human EBC1 cells assessed as phosphorylation of MEK1 at serine 298 after 2 hrs by HTRF assay. The data set is classed as cell-based.
Data set [4] in a line: Lipophilicity, log D of the compound at pH 7.4. The data set is classed as physicochemical. To be noted: buffer.
Data set [5] is described as follows: Kinetic solubility of the compound at pH 7.4. The data set is classed as physicochemical. The conditions noted are these: buffer, read-out: Kinetic_solubility.
Data set [6] can be described thus: Apparent permeability across apical to basolateral side in MDCK cells at 10 uM after 60 mins. The data set is classed as ADME, cell-based, Canis lupus familiaris. To be noted: dog.
The nature of data set [7]: Efflux ratio of permeability across basolateral to apical side over apical to basolateral side in MDCK cells at 10 uM after 60 mins. The data set is classed as ADME, cell-based, Canis lupus familiaris. The conditions noted are these: dog.
Data set [8] concerns the target Serine/threonine-protein kinase PAK 2 (Homo sapiens, UniProt Q13177). Briefly: Inhibition of human recombinant PAK2 assessed as phosphorylation of coumarin labeled FRET peptide substrate at Ser/Thr19 preincubated for 10 mins followed by ATP addition measured after 60 mins by Z'-LYTE assay.
The nature of data set [9]: Fraction unbound in mouse plasma at 25 to 150 mg/kg, ip. Type of data set: ADME, organism-based.
The nature of data set [10]: Cmax associated with acute adverse effect in mouse at 25 to 150 mg/kg, ip. The conditions noted are these: in vivo. The data set is classed as ADME, organism-based.
For data set [11], the system named is Mus musculus. Description: fCmax associated with acute adverse effect in mouse at 25 to 150 mg/kg, ip. To be noted: in vivo. The data set is classed as ADME, organism-based.
Data set [12] can be described thus: Ratio of fCmax associated with acute adverse effect in mouse at 25 to 150 mg/kg, ip to IC50 for PAK1/2-mediated phosphorylation of MEK1 at serine 298 in human EBC1 cells.

Serine/threonine-protein kinase PAK 2, sequence (Q13177 whole entry): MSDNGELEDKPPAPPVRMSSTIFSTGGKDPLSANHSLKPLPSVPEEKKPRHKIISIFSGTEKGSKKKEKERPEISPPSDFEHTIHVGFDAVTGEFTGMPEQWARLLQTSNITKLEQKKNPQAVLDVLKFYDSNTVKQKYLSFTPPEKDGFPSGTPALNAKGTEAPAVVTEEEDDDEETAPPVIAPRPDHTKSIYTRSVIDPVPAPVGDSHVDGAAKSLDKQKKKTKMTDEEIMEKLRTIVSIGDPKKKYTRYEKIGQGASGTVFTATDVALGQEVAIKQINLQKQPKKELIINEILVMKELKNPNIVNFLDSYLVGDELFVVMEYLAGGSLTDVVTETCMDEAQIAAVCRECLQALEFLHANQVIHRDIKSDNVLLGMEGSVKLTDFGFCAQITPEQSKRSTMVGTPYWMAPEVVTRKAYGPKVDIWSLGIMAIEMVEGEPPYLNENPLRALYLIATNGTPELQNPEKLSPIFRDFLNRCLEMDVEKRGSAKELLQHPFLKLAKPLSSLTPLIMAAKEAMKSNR

Take `CCn1c(=O)c(-c2ccc(-n3cccc(C)c3=O)cc2Cl)cc2cnc(NC3COC3)nc21`: the results for the Ki in [1] and in data set [8] were 0.0063 µM and 0.021 µM, respectively. Also, the Selectivity ratio in data set [2] is 123. Moreover, the IC50 in [3] worked out at 0.15 µM. Moreover, in [4], the logD worked out at 2.5. In addition, the solubility kinetic in [5] stood at 2.6 µM (≈ 1.21 µg/mL). In data set [6], the Papp A→B at 1 h, 10 µM was determined as 370 nm/s. Also, the efflux ratio at 1 h, 10 µM in [7] was found to be 0.4. The same compound yielded a fraction unbound in [9] of 0.006. In data set [10], this compound had a Cmax of 41 µM. In [11], this compound gave a fCmax of 0.24 µM. The Ratio in [12] amounted to 1.

The Ki is a dissociation constant, usually derived from enzyme kinetics or from competition with a known ligand. As usually defined, the IC50 is the concentration that inhibits the measured activity by half. One may read the logD as the decadic logarithm of the distribution of all forms, ionised or not, between an organic phase and buffer at a given pH. Read a high logD as higher lipophilicity. The Papp A→B is how fast a substance crosses the layer from the apical side. As a reminder, the efflux ratio is the permeability from basolateral to apical divided by that in the opposite direction, in the common usage. As usually defined, the fraction unbound is free concentration divided by total concentration. Read a low fraction unbound as extensive binding.
